Patent US20120258937A1, “Targeting Estrogen Receptors in the Treatment of Lymphangioleiomyomatosis” (Fox Chase Cancer Center, priority 2011, published 2012)

Experiments:
ELT3 cells = assay: ELT3 xenograft tumor growth, lung metastasis and survival in SCID mice; format: in vivo; details: for effect on estradiol-promoted lung metastases: ELT3 xenograft model of LAM; for mean tumor area: post-inoculation week eight
Procedure: Animal studies. All animal work was performed in accordance with protocols approved by the Institutional Animal Care and Use Committee at the Brigham and Women's Hospital. Female ovariectomized and male CB17-SCID mice, six to eight weeks of age, were purchased from Taconic (Hudson, N.Y.). One week prior to ELT3 cell injection, 17-beta estradiol or placebo pellets (2.5 mg, 90-day release, Innovative Research America, Sarasota, Fla.) were implanted. For xenograft tumor establishment, 2×10^6 ELT3 cells were bilaterally injected into the rear flanks of the mice. Lung metastases were scored from five-micron H & E stained sections of each lobe by observers blinded to the experimental conditions. […]
Statistical analyses. Statistical analyses were performed using Student's t-test when comparing two groups. Results are presented as means+SD (Standard Deviation) of experiments performed in triplicate. Differences were considered significant at p<0.05.

ELT3 xenograft tumors = assay: Analysis of ELT3 xenograft tumors (H&E, immunohistochemistry, TUNEL, immunoblot, real-time RT-PCR); format: in vivo, mice; details: for MMP2 protein level vs placebo-treated: immunoblotting
Procedure: Animal studies. All animal work was performed in accordance with protocols approved by the Institutional Animal Care and Use Committee at the Brigham and Women's Hospital. Female ovariectomized and male CB17-SCID mice, six to eight weeks of age, were purchased from Taconic (Hudson, N.Y.). One week prior to ELT3 cell injection, 17-beta estradiol or placebo pellets (2.5 mg, 90-day release, Innovative Research America, Sarasota, Fla.) were implanted. For xenograft tumor establishment, 2×10^6 ELT3 cells were bilaterally injected into the rear flanks of the mice. Lung metastases were scored from five-micron H & E stained sections of each lobe by observers blinded to the experimental conditions. Fulvestrant (1 mg/day, intramuscular injection) or Doxycycline (0.7 mg/day, 60-day release, Innovative Research America) treatments were initiated one day post-cell inoculation.
(§1) Immunoblotting and antibodies. Cells were rinsed once in ice-cold PBS and lysed in m-PER buffer (50 mM HEPES, pH 7.5, 50 mM NaCl, 5 mM EDTA, 50 mM NaF, 10 mM Na4P2O7, and 1% Triton, Pierce). Lysates were resolved by SDS-PAGE electrophoresis and transferred onto Immobilon P membranes (Millipore, Bedford, Mass.). The following antibodies were used for Western blot analysis: anti-MMP2 (Chemicon), anti-phospho-p42/44 MAPK (T202/Y204), anti-p42/44MAPK, anti-Collagen Type IV (Abnova), anti-Ki67 (BioGenex, San Ramon, Calif.), anti-beta-actin (Sigma), and anti-ERα (Santa Cruz, Calif.). Western blots were developed using horseradish peroxidase-conjugated secondary antibodies and ECL chemiluminescence (Amersham Biosciences, Piscataway, N.J.).
(§2) Immunohistochemistry. Sections were deparaffinized, incubated overnight with primary antibodies at 4° C. in a humidified chamber and then rinsed and incubated with biotinylated secondary antibodies for 30 minutes at room temperature. Slides were developed using the Broad Spectrum AEC Histostain®-Plus or Histostain®-Plus kit (Invitrogen), and they were counterstained with Gill's Hematoxylin. TUNEL assay reagent was from Roche. Gelatin zymography. Conditioned media from cultured cells were collected, filtered through […] Nalgene filter, and subjected for gel electrophoresis on 10% SDS-PAGE containing 0.1% gelatin (Invitrogen). MMP2 activity was detected according to the manufacture's protocol. Real-time RT-PCR. Total RNA from cultured cells and xenograft tumors was isolated using RNeasy® Mini Kit (Qiagen, Valencia, Calif.). Gene expression was quantified using One-Step qRT-PCR Kits (Invitrogen) in the Applied Biosystems Real-Time PCR System and normalized to beta-actin control amplification.

MMP2 [1] = assay: MMP2 activity in ELT3 conditioned media by gelatin zymography; format: cell-based, rat; details: ELT3 cells
Procedure: (§3) Cell culture and reagents. ELT-3 cells (Eker rat uterine leiomyoma-derived smooth muscle cells) were cultured in IIA complete medium supplemented with 15% fetal bovine serum (FBS). Prior to the in vitro experiments, cells were maintained in media supplemented with 10% charcoal-stripped FBS for three days, and then serum-starved for 24 hours in serum-free and phenol red-free medium. 17 beta-estradiol (E2, 10 nM, Sigma, St. Louis, Mo.), PD98059 (50 μM, Cell Signaling Technology, Danvers, Mass.), or ICI 182780 (1 μM, Biomol) were added to the cells as indicated.
as §2

MMP2 [2] = assay: MMP2 accumulation in cultured ELT3 cells by immunoblotting; format: cell-based, rat
Procedure: as §3, §1

[3] = estradiol plus drug, immunoblot
[4] = ELT3 xenograft, given on this schedule (one day prior to cell inoculation)
[5] = real-time RT-PCR, female mice, size-matched tumors

C[C@H]1c2cccc(O)c2C(=O)C2=C(O)[C@]3(O)C(=O)C(C(N)=O)=C(O)[C@@H](N(C)C)[C@@H]3[C@@H](O)[C@@H]21 [Doxycycline]
average number of lung metastases (ELT3 cells; drug plus estradiol): 9 metastases/mouse | range of number of lung metastases (ELT3 cells; drug plus estradiol): 6-18 metastases/mouse | effect on estradiol-promoted lung metastases (ELT3 cells; drug plus estradiol): does not inhibit | mice with lung metastases (ELT3 cells; drug plus estradiol, four of five mice): 80% | mean tumor area (ELT3 cells; drug plus estradiol): 333±142 mm^2 | mean tumor area (ELT3 cells; drug plus placebo): 193±80 mm^2

C[C@]12CC[C@@H]3c4ccc(O)cc4C[C@@H](CCCCCCCCC[S+]([O-])CCCC(F)(F)C(F)(F)F)[C@H]3[C@@H]1CC[C@@H]2O (stereo partly drawn) [Fulvestrant]
cell death (TUNEL staining) in xenograft tumors (ELT3 xenograft tumors; drug in estradiol-treated mice): did not affect | cell proliferation (Ki-67 immunoreactivity) in xenograft tumors (ELT3 xenograft tumors; drug in estradiol-treated mice): did not affect | ECM organization in xenograft tumors (ELT3 xenograft tumors; drug plus estradiol-treated animals): well-maintained ECM network | ECM organization in xenograft tumors (ELT3 xenograft tumors; drug plus placebo-treated animals): dense bundles of collagen fibers | ERα in tumors (ELT3 xenograft tumors; [3]): lower levels | phospho-p42/44 MAPK in tumors (ELT3 xenograft tumors; [3]): lower levels | effect on estradiol-promoted lung metastases (ELT3 cells; drug plus estradiol): completely blocked | effect on survival of estradiol-treated mice bearing xenograft tumors (ELT3 cells; drug plus estradiol, Kaplan-Meier): significantly increased | mean tumor area (ELT3 cells; drug plus estradiol): 259±83 mm^2 | effect on estradiol-stimulated MMP2 activity (MMP2 [1]; 4 hours pretreatment, then estradiol stimulation): almost completely blocked

COc1cccc(-c2cc(=O)c3ccccc3o2)c1N [PD98059]
effect on estradiol's enhancement of MMP2 accumulation (MMP2 [2]; 30 minutes preincubation, after two hours of estradiol treatment): strongly blocked

CO[C@H]1C[C@@H]2CC[C@@H](C)[C@@](O)(O2)C(=O)C(=O)N2CCCC[C@H]2C(=O)O[C@H]([C@H](C)C[C@@H]2CC[C@@H](OCCO)[C@H](OC)C2)CC(=O)[C@H](C)/C=C(\C)[C@@H](O)[C@@H](OC)C(=O)[C@H](C)C[C@H](C)/C=C/C=C/C=C/1C [RAD001]
lung metastasis (ELT3 cells; [4]): completely blocked | subcutaneous tumor development (ELT3 cells; [4]): completely blocked

C[C@]12CC[C@@H]3c4ccc(O)cc4CC[C@H]3[C@@H]1CC[C@@H]2O [estradiol, 17 beta-estradiol]
type IV collagen in xenograft tumors (ELT3 xenograft tumors; estradiol alone vs placebo, female and male mice): marked reduction | ECM organization in xenograft tumors (ELT3 xenograft tumors; estradiol alone vs placebo, female and male mice, H&E): disrupted ECM network | MMP2 protein level vs placebo-treated (ELT3 xenograft tumors; female mice): 1.8 fold | MMP2 protein level vs placebo-treated (ELT3 xenograft tumors; male mice): 2.5 fold | MMP2 transcript level vs placebo-treated (ELT3 xenograft tumors; [5]): 5 fold | MMP9 transcript level vs placebo-treated (ELT3 xenograft tumors; [5]): 28 fold | progesterone receptor (PgR) level vs placebo-treated (ELT3 xenograft tumors; real-time RT-PCR, xenograft tumors): 4 fold | average number of lung metastases (ELT3 cells; E2 alone): 10 metastases/mouse | range of number of lung metastases (ELT3 cells; E2 alone): 4-37 metastases/mouse | mice with pulmonary metastases (ELT3 cells; E2 alone, five of nine mice): 56% | increase in pulmonary metastasis of ELT3 cells (ELT3 cells; E2 alone, mice bearing xenograft tumors): three- to five-fold | overall survival vs placebo-treated mice (ELT3 cells; estradiol alone, mice bearing xenograft tumors): reduced overall survival | mean tumor area (ELT3 cells; estrogen alone): 251±65 mm^2 | increase of MMP2 activity (MMP2 [1]; estradiol stimulation for 24 hours): eight-fold | duration of estradiol-stimulated MMP2 activity (MMP2 [1]; up to 120 minutes stimulation): sustained throughout the 120 minutes stimulation | increase of active MMP2 level (MMP2 [1]; within five minutes of estradiol stimulation): three-fold | increase of MMP2 accumulation (MMP2 [2]; within two to four hours of estradiol treatment): five to seven-fold
